Assay results taken from patent US20080227809A1, “Arylalkylamine Vanadium (V) Salts for the Treatment and/or Prevention of Diabetes Mellitus” (GENMEDICA THERAPEUTICS SL, priority 2004, published 2008).
pEC50: −log10 of the molar value. “Also recorded” adds a separate entry of the source.

Tested on: isolated rat adipocytes
Experiment: glucose transport (2-deoxyglucose uptake) in isolated rat adipocytes
Assay type: cell-based
Conditions: for stimulatory effect on glucose transport in the presence of semicarbazide: 1 mM semicarbazide (SSAO inhibitor); for stimulation of glucose transport: 45 min incubation
Experimental: In order to determine whether salts formed by vanadate and benzylamine could produce an insulin mimetic effect, the effect of increasing concentrations of hexaquis(benzylammonium) decavanadate on glucose transport activity in isolated rat adipocytes was tested. Hexaquis(benzylammonium) decavanadate induced the stimulation of glucose transport which was perceptible from concentrations of 0.5 μM, with a maximal effect observed 2.5 μM and the semimaximal effect above 1 μM. […] The maximum effect provoked by incubation with hexaquis(benzylammonium) decavanadate was greater than that produced by the presence of benzylamine and vanadate in combination (FIG. 1). […] In similar assays, the activity of hexaquis(benzylammonium) decavanadate, pentaquis(benzylammonium) decavanadate and tetraquis(benzylammonium) decavanadate on glucose transport activity in isolated rat adipocytes were analyzed.
To determine the possible insulin mimetic effect of certain vanadium arylalkylamines, the capacity of these compounds to enhance glucose transport in isolated rat adipocytes was tested. Adipose cells from Wistar rats were incubated for 45 minutes in basal conditions (Basal) or in the presence of 100 nM insulin (Ins), and different concentrations of. hexaquis(benzylammonium) decavanadate (B6V10) in the absence or in the presence of 1 mM semicarbazide (SCZ). Subsequently, 2-DG transport was measured over a 5 min. interval.
The effects of the three tested compounds (B6V10, B5V10 and B4V10) were compared. Adipose cells from Wistar rats were incubated for 45 minutes in basal conditions (Basal) or in the presence of 100 nM insulin (Ins), and different concentrations of. decavanadate (V10), hexaquis(benzylammonium) decavanadate (B6V10), pentaquis(benzylammonium) decavanadate (B5V10) or tetraquis(benzylammonium) decavanadate (B4V10) in the absence or in the presence of 1 mM semicarbazide (SCZ). 2-DG transport was measured over 5 min. intervals. […] The stimulation of all three compounds on glucose transport was blocked in the presence of semicarbazide.
In additional experiments, compounds shown in FIG. 6A (named 2-(4-fluoro-phenyl)-ethylamine (compound A), 3-phenyl-propylamine (compound B), 4-fluoro-benzylamine (compound C) and 4-phenyl-butylamine (compound D)) were assessed using the experimental methods set forth above for the capacity to stimulate 2-DG uptake in isolated rat adipocytes. Adipose cells from Wistar rats were incubated for 45 minutes in basal conditions (Basal) or in the presence of 100 nM insulin (Ins), and different concentrations of vanadium salts of 2-(4-fluoro-phenyl)-ethylamine (compound A), 3-phenyl-propylamine (compound B), 4-fluoro-benzylamine (compound C) and 4-phenyl-butylamine (compound D). 2-DG transport was measured over 5 min.
The effects of incubation with semicarbazide or phosphatidylinositol 3-kinase inhibitors were also investigated. Adipose cells were incubated with B6V10 (25 μM, 45 min) in the absence or presence of wortmannin (2 μM, 45 min), LY294002 (10 μM, 45 min) or semicarbazide (1 mM, 45 min) and thereafter 2-deoxyglucose uptake was determined during 5 min. Activation of protein kinase B phosphorylation induced by B6V10 was blocked by semicarbazide and it was not observed by decavanadate. In addition, phosphatidylinositol 3-kinase inhibitors wortmannin and LY294002 blocked B6V10-induced glucose transport (FIG. 7E).

## hexaquis(benzylammonium) decavanadate [Example B6V10]
25 μM B6V10, data not shown
  stimulation of glucose transport compared with combination of 100 μM benzylamine and 100 μM vanadate: greater stimulation
  stimulatory effect on glucose transport in the presence of semicarbazide: completely blocked
Listed as hexaquis(benzylammonium) decavanadate
  stimulatory effect on glucose transport in the presence of semicarbazide: completely blocked; also recorded: inhibited
Combination 100 μM sodium vanadate and 100 μM benzylamine (FIG. 1)
  maximum effect on glucose transport compared with benzylamine and vanadate in combination: greater
Insulin 100 nM
  maximal effect on glucose transport relative to the maximal stimulation caused by insulin: 85%
Isolated rat adipocytes
  concentration at which maximal effect on glucose transport was observed: 2.5 µM
  concentration from which stimulation of glucose transport was perceptible: 0.5 µM
  stimulation of glucose transport: stimulated glucose transport in rat adipocytes in a concentration-dependent manner
Isolated rat adipocytes, listed as hexaquis(benzylammonium) decavanadate
  stimulation of glucose transport: pronounced stimulation
Isolated rat adipocytes, read-out: semimaximal effect on glucose transport
  pEC50: < 6.00
